Test results from patent USRE40086E1, “Method for treating bacterial infection with novel 7-substituted-9-substituted amino 6-demethyl-6-deoxytetracyclines” (Wyeth Holdings Corporation, priority 1991, dated 2008).
≈ marks a conversion by molar mass, not a printed value.

Legend:
Test in all cases: MIC, agar dilution
Type in all cases: cell-based
[1] = test system: S. aureus UBMS 90-1 (tetM); conditions: S. aureus UBMS 90-1 (tetM)
E. faecalis ATCC 29212 = conditions: E. faecalis ATCC 29212
[2] = test system: S. aureus UBMS 88-5 (tetM); conditions: S. aureus UBMS 88-5 (tetM)
E. coli UBMS 88-1 (tetB) = conditions: E. coli UBMS 88-1 (tetB)
[3] = test system: S. aureus UBMS 88-4 (Sensitive); conditions: S. aureus UBMS 88-4 (Sensitive)
[4] = test system: E. coli UBMS 88-2 (Sensitive); conditions: E. coli UBMS 88-2 (Sensitive)
[5] = test system: S. aureus UBMS 90-2 (tetM); conditions: S. aureus UBMS 90-2 (tetM)
E. coli ATCC 25922 = conditions: E. coli ATCC 25922
[6] = test system: S. aureus UBMS 88-7 (tetK); conditions: S. aureus UBMS 88-7 (tetK)
[7] = test system: S. aureus IVES 2943 (meth. resistant); conditions: S. aureus IVES 2943 (meth. resistant)
[8] = test system: E. coli UBMS 89-2 (Sensitive); conditions: E. coli UBMS 89-2 (Sensitive)
[9] = test system: S. aureus UBMS 90-3 (Sensitive); conditions: S. aureus UBMS 90-3 (Sensitive)
[10] = test system: S. aureus IVES 1983 (meth. resistant); conditions: S. aureus IVES 1983 (meth. resistant)
[11] = test system: S. haemolyticus AVAH 88-3; conditions: S. haemolyticus AVAH 88-3
[12] = test system: S. aureus ATCC 29213 (Sensitive); conditions: S. aureus ATCC 29213 (Sensitive)
E. coli UBMS 89-1 (tetM) = conditions: E. coli UBMS 89-1 (tetM)
[13] = test system: S. aureus Smith (Sensitive); conditions: S. aureus Smith (Sensitive)
E. faecalis 12201 = conditions: E. faecalis 12201

| Structure (SMILES) | MIC [1] [µg/mL] | MIC (E. faecalis ATCC 29212) [µg/mL] | MIC [2] [µg/mL] | MIC (E. coli UBMS 88-1 (tetB)) [µg/mL] | MIC [3] [µg/mL] | MIC [4] [µg/mL] | MIC [5] [µg/mL] | MIC (E. coli ATCC 25922) [µg/mL] | MIC [6] [µg/mL] | MIC [7] [µg/mL] | MIC [8] [µg/mL] | MIC [9] [µg/mL] | MIC [10] [µg/mL] | MIC [11] [µg/mL] | MIC [12] | MIC (E. coli UBMS 89-1 (tetM)) [µg/mL] | MIC [13] [µg/mL] | MIC (E. faecalis 12201) [µg/mL] |
| --- | --- | --- | --- | --- | --- | --- | --- | --- | --- | --- | --- | --- | --- | --- | --- | --- | --- | --- |
| CN(C)c1cc(NS(=O)(=O)c2ccc([N+](=O)[O-])cc2)c(O)c2c1CC1CC3C(N(C)C)C(O)=C(C(N)=O)C(=O)C3(O)C(O)=C1C2=O (stereo not drawn) [AA, 7-(Dimethylamino)-9-[[(4-nitrophenyl)sulfonyl]amino]-6-demethyl-6-deoxytetracycline] | 0.5 (≈ 0.76 µM) | 0.12 (≈ 0.182 µM) | 0.12 (≈ 0.182 µM) | 16 (≈ 24.3 µM) | 0.12 (≈ 0.182 µM) | 8 (≈ 12.2 µM) | 0.12 (≈ 0.182 µM) | 4 (≈ 6.08 µM) | 2 (≈ 3.04 µM) | 4 (≈ 6.08 µM) | 16 (≈ 24.3 µM) | 0.06 (≈ 0.0912 µM) | 8 (≈ 12.2 µM) | 2 (≈ 3.04 µM) | 0.12 µg/mL (≈ 0.182 µM) | 4 (≈ 6.08 µM) | 0.12 (≈ 0.182 µM) | – |
| CN(C)c1cc(N(C)C)c2c(c1O)C(=O)C1=C(O)C3(O)C(=O)C(C(N)=O)=C(O)C(N(C)C)C3CC1C2 (stereo not drawn) [C, 7-(Dimethylamino)-9-(dimethylamino)-6-demethyl-6-deoxytetracycline] | 0.5 (≈ 0.999 µM) | 0.06 (≈ 0.12 µM) | 0.12 (≈ 0.24 µM) | 16 (≈ 32 µM) | 0.03 (≈ 0.0599 µM) | 0.25 (≈ 0.499 µM) | 0.12 (≈ 0.24 µM) | 0.25 (≈ 0.499 µM) | 0.25 (≈ 0.499 µM) | 1 (≈ 2 µM) | 0.5 (≈ 0.999 µM) | 0.03 (≈ 0.0599 µM) | 1 (≈ 2 µM) | 0.12 (≈ 0.24 µM) | ≦0.015 μg/ml | 1 (≈ 2 µM) | 0.03 (≈ 0.0599 µM) | 0.5 (≈ 0.999 µM) |
| CCN(CC)c1cc(NC(C)=O)c(O)c2c1C[C@H]1C[C@H]3[C@H](N(C)C)C(O)=C(C(N)=O)C(=O)[C@@]3(O)C(O)=C1C2=O.O=S(=O)(O)O.O=S(=O)(O)O [Compound E, 9-(Acetylamino)-7-(diethylamino)-6-demethyl-6-deoxytetracycline disulfate] | 8 | 2.0 | 4 | >32 | 0.5 | >32 | 2 | 32 | 4 | 8 | >32 | 0.5 | 16 | 8 | ≦0.015 μg/ml | 32 | 0.5 | 16 |
| CN(C)C1C(O)=C(C(N)=O)C(=O)C2(O)C(O)=C3C(=O)c4c(O)c(NC=O)cc(I)c4CC3CC12.O=S(=O)(O)O (stereo not drawn) [G, 9-(Formylamino)-7-iodo-6-demethyl-6-deoxytetracycline sulfate] | 4 | 0.25 | 1 | >32 | <0.015 | 1 | 0.5 | 0.5 | 16 | 32 | 1 | 0.03 | 32 | 0.06 | – | 1 | 0.03 | 16 |
| CC(=O)Nc1nc(C)c(S(=O)(=O)Nc2cc(N(C)C)c3c(c2O)C(=O)C2=C(O)C4(O)C(=O)C(C(N)=O)=C(O)C(N(C)C)C4CC2C3)s1 (stereo not drawn) [GG, 9-[[[(2-Acetylamino)-4-methyl-5-thiazolyl]sulfonyl]amino]-7-(dimethylamino)-6-demethyl-6-deoxytetracycline] | 32 (≈ 46.3 µM) | 1 (≈ 1.45 µM) | 16 (≈ 23.2 µM) | >32 | 4 (≈ 5.79 µM) | >32 | 4 (≈ 5.79 µM) | >32 | 32 (≈ 46.3 µM) | >32 | >32 | 2 (≈ 2.9 µM) | 32 (≈ 46.3 µM) | – | 0.5 µg/mL (≈ 0.724 µM) | 32 (≈ 46.3 µM) | 2 (≈ 2.9 µM) | – |
| CC(=O)Nc1cc(I)c2c(c1O)C(=O)C1=C(O)C3(O)C(=O)C(C(N)=O)=C(O)C(N(C)C)C3CC1C2.O=S(=O)(O)O (stereo not drawn) [H, 9-(Acetylamino)-7-iodo-6-demethyl-6-deoxytetracycline sulfate] | 1 | 0.25 | 1 | – | 0.25 | >128 | 0.5 | 16 | 16 | 32 | 16 | 0.12 | 32 | 2 | 0.22 µg/mL | 128 | 0.12 | 2 |
| CN(C)c1cc(NC(=O)C(F)(F)F)c(O)c2c1C[C@H]1C[C@H]3[C@H](N(C)C)C(O)=C(C(N)=O)C(=O)[C@@]3(O)C(O)=C1C2=O.O=S(=O)(O)O [I, 7-(Dimethylamino)-9-((trifluoroacetyl)amino]-g-demethyl-6-deoxytetracycline sulfate] | 16 | 8 | 16 | >32 | 8 | 32 | 16 | 32 | 16 | – | 32 | 4 | 32 | 0.5 | 1 µg/mL | 32 | 8 | 16 |
| Cc1ccccc1C(=O)Nc1cc(N(C)C)c2c(c1O)C(=O)C1=C(O)C3(O)C(=O)C(C(N)=O)=C(O)C(N(C)C)C3CC1C2 (stereo not drawn) [R, 7-(Dimethylamino)-9-((2-methylbenzoyl)amino]-6-demethyl-6-deoxytetracycline] | 8 (≈ 13.5 µM) | 2 (≈ 3.39 µM) | 4 (≈ 6.77 µM) | 2 (≈ 3.39 µM) | 2 (≈ 3.39 µM) | >32 | 2 (≈ 3.39 µM) | >32 | 4 (≈ 6.77 µM) | 4 (≈ 6.77 µM) | >32 | 1 (≈ 1.69 µM) | 8 (≈ 13.5 µM) | 8 (≈ 13.5 µM) | 0.12 µg/mL (≈ 0.203 µM) | – | 1 (≈ 1.69 µM) | 8 (≈ 13.5 µM) |
| CN(C)c1cc(NC(=O)c2ccccc2F)c(O)c2c1CC1CC3C(N(C)C)C(O)=C(C(N)=O)C(=O)C3(O)C(O)=C1C2=O (stereo not drawn) [S, 7-(Dimethylamino)-9-[(2-fluorobenzoyl)amino]-6-demethyl-6-deoxytetracycline] | 4 (≈ 6.73 µM) | 4 (≈ 6.73 µM) | 2 (≈ 3.36 µM) | >32 | 2 (≈ 3.36 µM) | >32 | 1 (≈ 1.68 µM) | >32 | 8 (≈ 13.5 µM) | 8 (≈ 13.5 µM) | >32 | 1 (≈ 1.68 µM) | 4 (≈ 6.73 µM) | 4 (≈ 6.73 µM) | 0.5 µg/mL (≈ 0.841 µM) | – | 1 (≈ 1.68 µM) | 4 (≈ 6.73 µM) |
| CN(C)c1cc(NC(=O)c2c(F)c(F)c(F)c(F)c2F)c(O)c2c1CC1CC3C(N(C)C)C(O)=C(C(N)=O)C(=O)C3(O)C(O)=C1C2=O (stereo not drawn) [T, 7-(Dimethylamino)-9-((pentafluorobenzoyl)amino]-6-demethyl-6-deoxytetracycline] | 4 (≈ 6 µM) | 4 (≈ 6 µM) | 4 (≈ 6 µM) | >32 | 4 (≈ 6 µM) | >32 | 2 (≈ 3 µM) | >32 | 4 (≈ 6 µM) | 4 (≈ 6 µM) | >32 | 2 (≈ 3 µM) | 4 (≈ 6 µM) | 4 (≈ 6 µM) | 1 µg/mL (≈ 1.5 µM) | – | 4 (≈ 6 µM) | 4 (≈ 6 µM) |
